Reference: US11090246B2, “Powder hair dye composition” (KAO CORPORATION, priority 2017, dated 2021)

assay: pKa and color of the azo dyes on dissociation of a proton; type: physicochemical
Description: Therefore, because the components (B) and (C) coexist with the component (A) in the powder hair dye composition of the present invention, a proton of the component (A) is dissociated and a color of the composition becomes close to one after hair dyeing.

| SMILES | color assumed by dissociation of a proton |
| --- | --- |
| CSc1nsc(/N=N/c2ccc(O)c(Cl)c2)n1 [(A-1), HC Blue 18] | red color |
| NS(=O)(=O)c1ccc2nsc(/N=N/c3ccc(O)c(Cl)c3)c2c1 [(A-2), HC Red 18] | blue color |
| Cn1nccc1/N=N/c1ccc(O)c(Cl)c1 [(A-3), HC Yellow 16] | yellow color |
